Test results as given in ChEMBL document CHEMBL3232869, “Anti-inflammatory components of Euphorbia humifusa Willd” (Bioorg Med Chem Lett, 2014).
pIC50: −log10 of the molar value. Activity calls are given as the source filed them. The rule behind the calls is not given here.

What was measured:
RAW264.7 [1] = assay: Antiinflammatory activity in mouse RAW264.7 cells assessed as inhibition of LPS-induced TNF-alpha secretion at 0.4 uM after 18 hrs by sandwich ELISA; assay type: functional, cell-based
RAW264.7 [2] = assay: Cytotoxicity against mouse RAW264.7 cells assessed as cell viability at 50 uM after 18 hrs by MTT assay in presence of LPS; assay type: cell-based; details: raw264.7, 18 h
RAW264.7 [3] = assay: Antiinflammatory activity in mouse RAW264.7 cells assessed as inhibition of LPS-induced nitric oxide production at 0.4 uM after 18 hrs by griess reaction analysis; assay type: functional, cell-based
RAW264.7 [4] = assay: Antiinflammatory activity in mouse RAW264.7 cells assessed as inhibition of LPS-induced nitric oxide production after 18 hrs by griess reaction analysis; assay type: functional, cell-based; details: RAW264.7, 18 h
RAW264.7 [5] = assay: Antiinflammatory activity in mouse RAW264.7 cells assessed as inhibition of LPS-induced nitric oxide production at 10 uM after 18 hrs by griess reaction analysis; assay type: functional; details: for inhibition at 10 µM: RAW264.7, 18 h
RAW264.7 [6] = assay: Antiinflammatory activity in mouse RAW264.7 cells assessed as inhibition of LPS-induced TNF-alpha secretion after 18 hrs by sandwich ELISA; assay type: functional, cell-based; details: RAW264.7, 18 h
RAW264.7 [7] = assay: Antiinflammatory activity in mouse RAW264.7 cells assessed as inhibition of LPS-induced TNF-alpha secretion at 10 uM after 18 hrs by sandwich ELISA; assay type: functional; details: for inhibition at 10 µM: RAW264.7, 18 h
[8] = target: T1, Bifunctional epoxide hydrolase 2 (Homo sapiens, UniProt P34913); assay: Inhibition of sEH (unknown origin) assessed as substrate PHOME hydrolysis after 1 hr by fluorescence method
T1 sequence (P34913 whole entry): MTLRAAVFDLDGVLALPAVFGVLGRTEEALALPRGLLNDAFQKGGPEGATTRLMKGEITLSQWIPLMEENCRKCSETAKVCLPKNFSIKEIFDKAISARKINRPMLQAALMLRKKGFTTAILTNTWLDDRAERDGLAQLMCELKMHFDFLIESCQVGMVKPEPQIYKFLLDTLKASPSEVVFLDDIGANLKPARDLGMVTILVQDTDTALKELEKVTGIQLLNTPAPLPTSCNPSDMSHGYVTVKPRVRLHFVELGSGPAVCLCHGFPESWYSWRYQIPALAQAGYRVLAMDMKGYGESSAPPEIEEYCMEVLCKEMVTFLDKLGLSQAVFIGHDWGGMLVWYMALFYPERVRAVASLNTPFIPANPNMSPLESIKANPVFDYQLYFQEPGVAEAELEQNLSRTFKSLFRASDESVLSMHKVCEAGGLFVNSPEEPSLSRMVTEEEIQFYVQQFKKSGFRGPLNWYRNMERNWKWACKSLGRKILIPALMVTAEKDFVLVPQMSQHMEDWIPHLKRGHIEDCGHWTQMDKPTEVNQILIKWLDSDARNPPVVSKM

[9] = target: T2, Bifunctional epoxide hydrolase 2 (Homo sapiens) (UniProt P34913); assay: Inhibition of sEH (unknown origin) assessed as substrate PHOME hydrolysis at 25 uM after 1 hr by fluorescence method
T2 sequence (whole entry): T1 sequence (P34913 whole entry)

Row | Compound | inhibition (RAW264.7 [1]) | Activity (RAW264.7 [2]) | inhibition (RAW264.7 [3]) | pIC50 (RAW264.7 [4]) | inhibition at 10 µM (RAW264.7 [5]) [%] | pIC50 (RAW264.7 [6]) | inhibition at 10 µM (RAW264.7 [7]) [%] | pIC50 [8] | inhibition (RAW264.7 [5]) | inhibition [9] [%] | inhibition (RAW264.7 [7])
1 | COC/C=C/c1cc(OC)c(O[C@@H]2O[C@H](CO)[C@@H](O)[C@H](O)[C@H]2O)c(OC)c1 | inactive | Non-toxic | inactive | 4.76 | 30 | 4.76 | 21.5 |  |  |  | 
2 | O=c1c(O[C@@H]2O[C@H](CO)[C@@H](O)[C@H](O)[C@H]2O)c(-c2ccc(O)c(O)c2)oc2cc(O)cc(O)c12 [ISOQUERCETIN] | inactive | Non-toxic | inactive |  |  | < 4.30 |  | 4.55 | inactive | > 40 | Active
3 | CC1=CC[C@@H](C(C)(C)O[C@@H]2O[C@H](CO[C@@H]3OC[C@H](O)[C@H](O)[C@H]3O)[C@@H](O)[C@H](O)[C@H]2O)CC1 | inactive | Non-toxic | inactive |  |  | < 4.30 |  |  | Active | < 40 | Active
4 | C[C@@H]1O[C@@H](OC[C@H]2O[C@@H](Oc3c(-c4ccc(O)c(O)c4)oc4cc(O)cc(O)c4c3=O)[C@H](O)[C@@H](O)[C@@H]2O)[C@H](O)[C@H](O)[C@H]1O [RUTIN] | inactive | Non-toxic | inactive | 4.56 |  | 4.35 |  | 4.61 | Active | > 40 | Active
5 | O=C(O[C@@H]1O[C@@H]2COC(=O)c3cc(O)c(O)c(O)c3-c3c(cc(O)c(O)c3O)C(=O)O[C@H]([C@H]1O)[C@@H]2O)c1cc(O)c(O)c(O)c1 [CORILAGIN] | inactive | Non-toxic | inactive | 4.60 |  | 4.41 |  |  | Active | > 40 | Active
6 | O=c1c(O[C@@H]2O[C@H](CO)[C@@H](O)[C@H](O)[C@H]2O)c(-c2ccc(O)cc2)oc2cc(O)cc(O)c12 [ASTRAGALIN] | inactive | Non-toxic | inactive | 4.43 |  | 4.39 |  | < 4.30 | inactive | > 40 | Active
7 | COC(=O)[C@H]1CC(=O)c2oc(=O)c3cc(O)c(O)c(O)c3c21 | inactive | Non-toxic | inactive | 4.62 |  | 4.67 |  | < 4.30 | Active | > 40 | Active
8 | OC[C@H]1O[C@@H](OCc2ccccc2)[C@H](O)[C@@H]1O | inactive | Non-toxic | inactive | 4.61 |  | 4.74 | 21.5 |  | Active |  | 
9 | COC(=O)c1cc(O)c(O)c(O)c1 [GALLIC ACID METHYL ESTER] | inactive | Non-toxic | inactive | 4.95 | 35.1 | 4.53 |  |  |  |  | Active
10 | O=C(O[C@H]1[C@H](Oc2c(-c3ccc(O)cc3)oc3cc(O)cc(O)c3c2=O)O[C@H](CO)[C@@H](O)[C@@H]1OC(=O)c1cc(O)c(O)c(O)c1)c1cc(O)c(O)c(O)c1 | inactive | Non-toxic | inactive |  |  |  |  | 4.62 | inactive | > 40 | Active
11 | COC(=O)Cc1c2c3c(cc(O)c(O)c3oc1=O)C(=O)O[C@@H]2C(=O)OC | inactive | Non-toxic | inactive | 4.71 |  |  |  |  | Active |  | Active
12 | O=c1c(O[C@@H]2O[C@H](CO)[C@@H](O)[C@H](O)[C@H]2O)c(-c2cc(O)c(O)c(O)c2)oc2cc(O)cc(O)c12 | inactive | Non-toxic | inactive | 4.67 |  |  |  | 4.76 | Active | > 40 | Active
13 | Cc1ccc(-c2cc(C(F)(F)F)nn2-c2ccc(S(N)(=O)=O)cc2)cc1 [CELECOXIB] |  |  |  | 5.74 |  | 5.89 |  |  |  |  | 
14 | C[C@@H]1O[C@@H](OC[C@H]2O[C@@H](Oc3c(-c4ccc(O)cc4)oc4cc(O)cc(O)c4c3=O)[C@H](O)[C@@H](O)[C@@H]2O)[C@H](O)[C@H](O)[C@H]1O [NICOTIFLOROSIDE] | inactive | Non-toxic | inactive | 4.34 |  | 4.38 |  |  | inactive |  | Active
15 | COc1cc(/C=C/CO)cc(OC)c1O[C@@H]1O[C@H](CO)[C@@H](O)[C@H](O)[C@H]1O [SYRINGIN] | inactive | Non-toxic | inactive | 4.62 |  | 4.46 |  |  | Active | < 40 | Active
16 | COC/C=C/c1ccc(O[C@@H]2O[C@H](CO)[C@@H](O)[C@H](O)[C@H]2O)c(OC)c1 | inactive | Non-toxic | inactive | 4.72 | 32.9 | 4.78 | 21.5 |  |  | < 40 | 
17 | O=C(CCc1ccc(O)cc1)c1c(O)cc(O)cc1O[C@@H]1O[C@H](CO)[C@@H](O)[C@H](O)[C@H]1O [PHLORIZIN] | inactive | Non-toxic | inactive |  |  | 4.84 | 21.5 | 4.38 | inactive | > 40 | 
18 | O=c1c(O)c(-c2ccc(O)c(O)c2)oc2cc(O)cc(O)c12 [QUERCETIN] | inactive | Non-toxic | inactive | < 4.30 |  |  |  | 4.47 | inactive | > 40 | Active
19 | CC(=O)O[C@H]1[C@H](OC[C@H]2O[C@@H](Oc3ccc(O)cc3)[C@H](O)[C@@H](O)[C@@H]2O)O[C@@H](C)[C@H](OC(=O)c2ccc(O)cc2)[C@H]1O | inactive | Non-toxic | inactive | < 4.30 |  | < 4.30 |  |  | inactive |  | Active
20 | COC/C=C/c1ccc(O[C@@H](CO)CO[C@@H]2O[C@H](CO)[C@@H](O)[C@H](O)[C@H]2O)c(OC)c1 | inactive | Non-toxic | inactive | 4.54 |  | 4.57 |  |  | Active | < 40 | Active
21 | O=C(O[C@H]1[C@H](Oc2c(-c3ccc(O)cc3)oc3cc(O)cc(O)c3c2=O)O[C@H](CO)[C@@H](O)[C@@H]1O)c1cc(O)c(O)c(O)c1 | inactive | Non-toxic | inactive |  |  | 4.76 | 21.5 | 4.56 | inactive | > 40 | 
22 | C[C@@H]1O[C@@H](Oc2c(-c3ccc(O)c(O)c3)oc3cc(O)cc(O)c3c2=O)[C@H](OC(=O)c2cc(O)c(O)c(O)c2)[C@H](O)[C@H]1O | inactive | Non-toxic | inactive |  |  | 4.58 |  | 4.73 | inactive | > 40 | Active
23 | O=C(O[C@H]1[C@H](Oc2c(-c3ccc(O)c(O)c3)oc3cc(O)cc(O)c3c2=O)O[C@H](CO)[C@@H](O)[C@@H]1O)c1cc(O)c(O)c(O)c1 | inactive | Non-toxic | inactive |  |  | 4.79 | 21.5 | 4.74 | inactive | > 40 | 
